Data as given in US20240173232A1, “COSMETIC COMPOSITION COMPRISING CARNITINE-SALICYLATE AS ACTIVE INGREDIENT” (LG HOUSEHOLD & HEALTH CARE LTD., priority 2021, published 2024).

What was measured:
Raw 264.7 cells [1] = assay: NO production inhibition in LPS-treated Raw 264.7 cells (GRIESS method); type: cell-based, rat; conditions: LPS 500 ng/ml
Procedure: The anti-inflammatory effect of carnitine-salicylate (CA-SA) was confirmed experimentally.
In order to evaluate the efficacy of relieving inflammation caused by external stimuli in vitro, an experiment was performed by the GRIESS method using Raw 264.7 cells (ATCC number: CRL-2788), which are rat macrophage cell line, to evaluate the inhibition of NO production after treatment with lipopolysaccharide (LPS, Sigma Aldrich, USA). […] After removing the medium and performing starvation with a serum-free medium for 12 hours, the test material was treated at 0.1 to 100 ppm for 30 minutes, and then LPS was added at a concentration of 500 ng/ml and the cells were further cultured for 18 hours. After culturing, the supernatant was taken and transferred to a 96-well plate, GRIESS reagent was added and reacted at room temperature for 15 minutes, and absorbance at 540 nm was measured using an ELISA reader.

pig back skin = assay: In vitro exfoliation efficacy (detached keratinocytes from pig back skin); conditions: 16 hours, n=5
Procedure: The pig back skin surface was washed with phosphate buffer saline (PBS) and then cut to a certain size. Thereafter, the stratum corneum of the pig skin was exposed and placed on a 96-well plate, 100 μl of each sample was applied, and the 96-well plate was left in a constant temperature and humidity chamber for 16 hours. Thereafter, the supernatant of each sample was mixed well with a trypan blue solution in the 96-well plate to measure the number of detached keratinocytes. In order to verify the suitability of the relative dead skin cell control efficacy evaluation method used in this study, the following method was used. […] After treating the pig skin with the sample by the method described above, the number of detached keratinocytes was counted, and the number of detached keratinocytes in PHA (DL-gluconolactone) at pH 4.0 was set to 100% to evaluate the relative exfoliation efficacy. All evaluations were made at n=5 to secure reliability through repeated results.

[2] = tested on: fibroblasts obtained from human skin tissue; assay: MTT cytotoxicity assay, human fibroblasts; conditions: 24 hours
Procedure: (§1) The cytotoxicity of carnitine-salicylate (CA-SA) was evaluated by 3-(4,5-dimethythiazol-2-yl)-2,5-diphenyl tetrazolium bromide (MTT) assay. […] After removing the medium and adding each sample to a medium without FBS and incubating for 24 hours, the medium was removed, an MTT solution was added at a concentration of […], and reacted at 37° C. for 3 hours. The unreacted MTT solution was removed, and 100 μl of DMSO was added to dissolve the formed reaction product, and then absorbance was measured at 540 nm to confirm the cytotoxicity.
(§2) The cytotoxicity of salicylate, carnitine, and carnitine-salicylate (CA-SA) was evaluated by treating Raw 264.7 cells, which are rat macrophages, and human fibroblasts with the material. As a Raw 264.7 cell is a representative cell used to measure NO inhibitory efficacy in anti-inflammatory efficacy evaluations, its cytotoxicity was evaluated, and cytotoxicity with respect to fibroblasts was evaluated in order to confirm the toxicity that may be induced when the material is included in cosmetics and be repeatedly applied to the skin.

Raw 264.7 cells [3] = assay: MTT cytotoxicity assay, Raw 264.7 cells; conditions: 24 hours
Procedure: as §1, §2

[4] = 2% (mixture 1% + 1%), pH 5.5, relative to 10% gluconolactone pH 4.0 = 100%

Work on CC(=O)O.CNC(=N)NCCC[C@H](N)C(=O)O [L-MMMA, NG-monomethyl-L-arginine acetate] yielded an NO inhibition rate (Raw 264.7 cells [1]; positive control) of 62.2%.

With C[N+](C)(C)CC(O)CC(=O)[O-] (centres unmarked) [CA, 4-trimethylamino-3-hydroxybutyric acid] the “Exfoliation rate (%)” value (pig back skin; [4]) was 55.2% and the inhibition at 10 ppm (Raw 264.7 cells [1]; Mus musculus, RAW264.7, 10 ppm (mixture 10 ppm + 10 ppm), 18 hours, read-out: NO inhibition rate) was 0%.

With O=C1O[C@H](CO)[C@@H](O)[C@H](O)[C@H]1O (racemic) [Gloconolactone, DL-gluconolactone] the “Exfoliation rate (%)” value (pig back skin; 10%, pH 4, positive control set to 100%) was 100.0% and the “Exfoliation rate (%)” value (pig back skin; 10%, pH 6, relative to gluconolactone pH 4.0 = 100%) was 32.0%.

With O=C(O)c1ccccc1O [SA, salicylate] the “Exfoliation rate (%)” value (pig back skin; [4]) was 19.2%, the cell viability ([2]; 50 ppm) was 94.83% and the cell viability ([2]; 100 ppm) was 85.36%. It also gave a cell viability (Raw 264.7 cells [3]; 50 ppm) of 96.16%, a cell viability (Raw 264.7 cells [3]; 100 ppm) of 79.74% and an NO inhibition rate (Raw 264.7 cells [1]; 10 ppm (mixture 10 ppm + 10 ppm), 18 hours) of 16.4%.
